Consider 23 molecules from ChEMBL document CHEMBL1155865, “Discovery of triazolinone non-nucleoside inhibitors of HIV reverse transcriptase” (Bioorg Med Chem Lett, 2008).

Series [1] concerns the target T1, Human immunodeficiency virus type 1 reverse transcriptase (Human immunodeficiency virus 1, UniProt Q72547). Description: Inhibition of wild type HIV1 reverse transcriptase polymerase activity by scintillation counting assay.
For series [2], the system named is Human immunodeficiency virus 1. Briefly: Antiviral activity against HIV1 with reverse transcriptase K103N/Y181C mutant in MT4 cells assessed as inhibition of virus-induced cytopathic effect. As to conditions: Human immunodeficiency virus 1, MT4. The format is functional, organism-based.
Series [3] deals with Human immunodeficiency virus 1. Description: Antiviral activity against HIV1 with wild type reverse transcriptase in MT4 cells assessed as inhibition of virus-induced cytopathic effect. The series is classed as functional, organism-based. To be noted: Human immunodeficiency virus 1, MT4.
Series [4] concerns the target Human immunodeficiency virus type 1 reverse transcriptase (Human immunodeficiency virus 1) (UniProt Q72547). Briefly: (§1) Binding affinity to wild type HIV1 reverse transcriptase by SPR assay.
A further series deals with Cytochrome P450 3A4 (Homo sapiens, UniProt P08684). Description: Inhibition of CYP3A4. The format is ADME.
Series [5] deals with T1, Human immunodeficiency virus type 1 reverse transcriptase. Described as §1.
In series [6] the test system is Human immunodeficiency virus 1. Briefly: Antiviral activity against HIV1 with reverse transcriptase K103N/L100I mutant in MT4 cells assessed as inhibition of virus-induced cytopathic effect. As to conditions: Human immunodeficiency virus 1, MT4. The series is classed as functional, organism-based.
The test system of another series is Liver microsomes. Briefly: Clearance in rat liver microsome per mg of protein. The series is classed as ADME.
Series [7] in a line: Bioavailability in dog at 2 mg/kg, po. The format is ADME, organism-based, Canis lupus familiaris. As to conditions: in vivo.
The subject of series [8] is Human immunodeficiency virus 1. Description: Antiviral activity against HIV1 with reverse transcriptase […] mutant in MT4 cells assessed as inhibition of virus-induced cytopathic effect. The format is functional, organism-based. As to conditions: Human immunodeficiency virus 1, MT4.
Series [9] in a line: Clearance in dog at 0.5 mg/kg, iv or 2 mg/kg, po. The series is classed as ADME, organism-based, Canis lupus familiaris. As to conditions: in vivo.
The subject of the next series is Caco-2. Briefly: Apparent permeability across human Caco-2 cells. The format is ADME, cell-based.
The subject of series [10] is Human immunodeficiency virus 1. Description: Antiviral activity against HIV1 with reverse transcriptase Y181C mutant in MT4 cells assessed as inhibition of virus-induced cytopathic effect. As to conditions: Human immunodeficiency virus 1, MT4. The format is functional, organism-based.
The nature of series [11]: AUC (0 to infinity) in dog at 0.5 mg/kg, iv or 2 mg/kg, po. The series is classed as ADME, organism-based, Canis lupus familiaris. As to conditions: plasma.
Series [12] can be described thus: Cmax in dog at 0.5 mg/kg, iv or 2 mg/kg, po. The format is ADME, organism-based, Canis lupus familiaris. As to conditions: in vivo.
Series [13] is described as follows: Solubility of compound at pH 6.5. The format is physicochemical. To be noted: buffer.

≈ marks a conversion by molar mass, not a printed value. Calls of active or inactive are those of the source. The calls are words filed in the database; no cut-off is given here.

Chain of Cytochrome P450 3A4 (P08684 whole entry): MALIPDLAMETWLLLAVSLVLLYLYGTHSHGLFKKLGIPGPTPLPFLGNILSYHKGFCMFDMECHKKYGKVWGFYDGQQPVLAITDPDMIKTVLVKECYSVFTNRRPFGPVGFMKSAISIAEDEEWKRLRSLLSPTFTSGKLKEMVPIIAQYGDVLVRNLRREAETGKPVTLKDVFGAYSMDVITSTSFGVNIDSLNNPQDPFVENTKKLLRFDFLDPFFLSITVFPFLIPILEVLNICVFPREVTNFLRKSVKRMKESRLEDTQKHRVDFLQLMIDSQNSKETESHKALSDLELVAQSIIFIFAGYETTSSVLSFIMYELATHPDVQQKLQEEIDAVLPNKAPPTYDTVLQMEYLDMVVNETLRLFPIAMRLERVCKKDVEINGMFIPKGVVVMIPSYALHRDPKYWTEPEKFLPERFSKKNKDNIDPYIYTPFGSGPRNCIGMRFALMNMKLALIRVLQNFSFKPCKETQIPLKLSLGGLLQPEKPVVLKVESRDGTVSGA

Consider `CC1OC(Cc2ccc(Cl)c(Oc3cccc(Br)c3)c2)=NNC1=O` (stereo not given), for which the IC50 in [1] worked out at 50 nM.

Turning to `CCc1ccc(Cc2n[nH]c(=O)n2C)c(F)c1Oc1cc(Cl)cc(C#N)c1`, the values for the EC50 in [2] and in series [3] were 4 nM and 2 nM, respectively.

On to `Cn1c(Cc2ccccc2)n[nH]c1=O`, for which, in [4], the result was inactive. In series [1], the IC50 is > 100000 nM.

As for `Cn1c(Cc2ccc(C3CC3)c(Oc3cc(Cl)cc(C#N)c3)c2F)n[nH]c1=O`, the EC50 in series [2] worked out at 11 nM; in series [3], 2 nM.

Consider `Cc1ccc(Cc2n[nH]c(=O)n2C)c(F)c1Oc1cc(Cl)cc(C#N)c1`, for which the concentration giving a half-maximal response (EC50) came to 26 nM in series [2] and 2 nM in series [3]. The molecule further gave a half-inhibitory concentration (IC50) against Cytochrome P450 3A4 of 12 µM.

In the case of `Cn1c(Cc2ccc(Cl)c(Oc3cccc(Br)c3)c2)n[nH]c1=O`, in series [1], the IC50 came out at 690 nM.

For `Cn1c(Cc2ccc(Br)cc2)n[nH]c1=O`, in series [5], the Kd came out at 388 µM. The 50% inhibitory concentration (IC50) in [1] was > 100000 nM.

Molecule `Cn1c(Cc2cccc(Oc3ccccc3)c2)n[nH]c1=O` returned a Kd in series [5] of 3 µM. The half-inhibitory concentration (IC50) in series [1] was found to be 18000 nM.

The molecule `Cc1nc(Cc2ccc(Cl)c(Oc3cccc(Br)c3)c2)n[nH]c1=O` showed an IC50 in series [1] of 330 nM.

Consider `Cc1n[nH]c(=O)n1C`, for which, in [4], the outcome was inactive. For the same molecule, the half-maximal inhibitory concentration (IC50) in series [1] was > 100000 nM.

Consider `Cc1cc(Cc2ccc(Cl)c(Oc3cc(Cl)cc(C#N)c3)c2F)n[nH]c1=O`, for which the concentration giving a half-maximal response (EC50) worked out at 19 nM in series [2], 1 nM in series [3] and 4 nM in series [6].

In the case of `O=c1[nH]nc(Cc2ccc(Cl)c(Oc3cccc(Br)c3)c2)s1`, the IC50 in [1] worked out at 530 nM.

Consider `Cn1c(Cc2ccc(Br)cc2F)n[nH]c1=O`, for which the Kd in series [5] was 102 µM. The IC50 in series [1] was > 10000 nM.

With `CC1OC(Cc2ccc(Cl)c(Oc3cc(Cl)cc(C#N)c3)c2F)=NNC1=O` (stereo not given), the results for the EC50 in [2] and in [3] were 34 nM and 5 nM, respectively. In addition, the results for the 50% inhibitory concentration (IC50) (at Cytochrome P450 3A4; in [1]) were 0.27 µM and 13 nM, respectively.

For the molecule `CN(C)c1cc(Cc2ccc(Cl)c(Oc3cccc(Br)c3)c2)n[nH]c1=O`, in [1], the IC50 was 230 nM.

In turn, `O=c1[nH]nc(Cc2ccc(Cl)c(Oc3cccc(Br)c3)c2)o1` displayed an IC50 in series [1] of 5800 nM.

Consider `COc1c(Br)ccc(Cc2n[nH]c(=O)n2C)c1F`, for which, in series [5], binding was put at a Kd of 4 µM. This molecule also registered an IC50 in series [1] of 34000 nM.

In turn, `C[C@H]1CC(Cc2ccc(Cl)c(Oc3cc(Cl)cc(C#N)c3)c2F)=NNC1=O` had an IC50 in series [1] of 17 nM. For the same molecule, the EC50 in series [3] was determined as 32 nM.

`CN1CC(Cc2ccc(Cl)c(Oc3cccc(Br)c3)c2)=NNC1=O`: in series [1], the IC50 was determined as 150 nM.

On to `C[C@H]1NC(Cc2ccc(Cl)c(Oc3cc(Cl)cc(C#N)c3)c2F)=NNC1=O`, for which the figures for the concentration for a half-maximal effect (EC50) in [2] and in series [3] were 72 nM and 8 nM, respectively. The same molecule showed a clearance in the series on Liver microsomes of 130 µL/min/mg. In [1], this molecule came in with a half-inhibitory concentration (IC50) of 11 nM.

Turning to `Cn1c(Cc2ccc(Br)c(Oc3cc(Cl)cc(C#N)c3)c2F)n[nH]c1=O`, the EC50 in series [2] came out at 9 nM; in series [8], 1 nM; in [10], 5 nM; in series [3] it was 2 nM. The same molecule had a bioavailability in series [7] of 74%. The same molecule had a Kd in series [5] of 0.004 µM. Further, the clearance in series [9] came out at 1.5 mL/min/kg. Also, the Papp in the series on Caco-2 was 15.1 10^-6 cm/s. In [1], the half-maximal inhibitory concentration (IC50) came out at 5 nM. Moreover, the AUC(0-inf) in [11] was 38.4 µM·h. For the same molecule, the concentration in series [12] peaked (Cmax) at 1300 nM. In series [13], the concentration in solution (solubility) was 2.4 µg/mL (≈ 5.48 µM).

`Cc1cc(Cc2ccc(Cl)c(Oc3cccc(Br)c3)c2)n[nH]c1=O` returned an IC50 in series [1] of 130 nM.

Turning to `Cn1c(Cc2ccc(Cl)c(Oc3cc(Cl)cc(C#N)c3)c2F)n[nH]c1=O`, the 50% effective concentration (EC50) in [2] stood at 39 nM; in [3], 8 nM. In series [1], it took 11 nM to reach half-maximal inhibition (IC50).
